One compound from paper PMC10388327, “Dual Piperidine-Based Histamine H3 and Sigma-1 Receptor Ligands in the Treatment of Nociceptive and Neuropathic Pain” (Journal of Medicinal Chemistry, 2023) can be followed below.

Counter-ions that a name gives are not always drawn.

The test system of experiment [1] is CCI-exposed mice. As to the kind of experiment: CCI of the sciatic nerve, tail flick test. The experiment is classed as in vivo, male albino Swiss CD-1 mice. The protocol:
Behavioral assessment of 12 was performed 14 days after the sciatic nerve injury. Mice were randomly assigned to four treatment groups: vehicle-treated (i.p.) and 12-treated (5, 10, and 15 mg/kg, i.p.). Baseline measurements (basal) for all tests were performed before compound injections, and the results are presented as percentages of the maximal possible effect (% MPE). We observed a significant effect of the tested compound in the von Frey test at all tested time points (30 min: F(3, 26) = 12.38, p < 0,0001; 90 min: F(3, 26) = 12.65, p < 0.0001; 180 min: F(3, 26) = 6.464, p = 0.0020). […] We also observed a significant effect of treatment on the contralateral paw 90 min after injection (F(3, 26) = 5.741, p = 0.0037).
The model of chronic constriction injury (CCI) to the sciatic nerve was established according to Bennett and Xie.[94] The surgical method was performed under isoflurate anesthesia (2% isoflurane in 100% oxygen with a flow of 1.5 L/min).[95] […]
Tail flick latency was measured on the dorsal part of the tail at two-thirds of its length by applying a focused beam of light (thermal stimulus). The time interval between onset of the thermal stimulus and withdrawal of the tail from the beam was recorded; the cutoff latency was 9 s to prevent tissue damage.
In general terms: Thermal pain tests record how soon the animal reacts.

For experiment [2], the system named is mice. Nature of the experiment: capsaicin-induced nociception. In kind it is in vivo. As for the experimental part:
The procedure used was similar to that described previously.[88],[89] The pain reaction was induced by the injection of 20 μL of capsaicin solution (1.6 μg/paw made in PBS) under the skin of the dorsal surface of the mice right hindpaw. The animals were observed individually in an observation chamber for 5 min following capsaicin injection. The amount of time spent licking the injected paw was recorded by means of the stopwatch and was considered as indicative of pain. The animals were pretreated with the vehicle (10 mL/kg, negative control) and investigated compound (10, 15, and 30 mg/kg).

Usually ED50 stands for the midpoint of the dose-response relation. On to `N#Cc1ccc(-c2ccc(OCCCN3CCC(c4ccncc4)CC3)cc2)cc1` [Compound 12, 4′-(3-(4-(Pyridin-4-yl)piperidin-1-yl)propoxy)-[1,1′-biphenyl]-4-carbonitrile Oxalate], for which the “analgesic effect, tail flick test” value in experiment [1] (100 and 190 min after i.p. injection) is “only the 10 mg/kg dose had significant analgesic effects”; in experiment [1] (40 min after i.p. injection) it was “significant analgesic action of 12 at 40 min (for doses 5 (p = 0.021) and 10 mg/kg (p < 0.0001))”. Further, the “effect on nociceptive response in capsaicin test” value in experiment [2] (10, 15 and 30 mg/kg) was “significantly decreased the paw licking or biting behavior”. In experiment [2] (Mus musculus, 5 min, 5 min after intraplantar capsaicin, read-out: ED50, capsaicin test), the median effective dose (ED50) was determined as 10.3 mg/kg.
